Article PMC10477861, “Efficient Mining of Anticancer Peptides from Gut Metagenome” (Advanced Science, 2023)
Where no end group is shown, it is not given here.

Columns and labels:
CT26 = test: MTT concentration gradient and CC50 against CT26; assay type: cell-based, Murine; details: CT26 cells, calculated with aatbio IC50 calculator from the concentration gradient
Protocol: To evaluate the translational relevance of our methodology, we selected these two pACPs for in vivo studies. […] Subcutaneous tumors were established using CT26 cells in athymic nude mice, and the animals were randomized to receive two intratumoral injections of 0.80 mg kg^−1 pACP2283, 0.51 mg kg^−1 pACP1780, or PBS control on day 0 and day 2. The dosage of pACPs was calculated as five times the CC50 of each compound in CT26 cells. Tumor size was monitored daily for six days (Figure 3c).
To evaluate the activity of the 40 potentially effective pACPs, a panel of 16 cancer cell lines was treated, including human CRC cell lines (HT29, Caco‐2, HCT116). Details of the cell lines used, respective media, and culture conditions were presented in Table S1 (Supporting Information). Once the cells reached 60% confluence, it was incubated with each candidate peptide at a concentration of 25 µM pACPs for 24 h. Concurrently, the complete medium was replaced with a maintenance medium containing only 1% FBS. Subsequently, the viability of each cell line using the MTT Cell Proliferation and Cytotoxicity Assay Kit according to the manufacturer's instructions was assessed. […] For the CRC cell line CT26, it was calculated the CC50 value using two peptides (pACP1780 and pACP2283) with relevant data presented in Table S6 (Supporting Information). […]

LCC = test: MTT primary screening of anticancer activity, LCC; assay type: cell-based; details: 25 µM pACP, 24 h, maintenance medium 1% FBS, ratio of viability to vehicle (PBS), at least three technical repetitions
How it was run: (§1)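 Cultures grown to 60% confluence; complete medium replaced by 1% FBS maintenance medium; peptide added at 25 µM final; incubated 24 h; viability assessed by MTT.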

CT26 cells [1] = test: Transmission electron microscopy of treated CT26 cells; assay type: cell-based, Murine; details: 10× CC50, two hours, triplicate
Protocol: (§2) To explore the anticancer effects of pACP2283 and pACP1780 at the cellular level, we co‐cultured confluent CT26 cells with these pACPs.
Experiments were performed in triplicate with similar results, and a representative figure is shown. c) CD results for the two selected ACPs and the corresponding proportions of secondary structures calculated from CD data using CDNN. Purple represents the water phase, blue represents the represents the peptide mixed with a 20‐fold POPC lipid mixture, and grey represents the peptide mixed with a 20‐fold POPC+POPS lipid mixture.
First, CT26 cancer cells were treated with peptides pACP1780 and pACP2283 for two hours. The digested CT26 cancer cells were then resuspended in double‐strength fixative, which consisted of 2% (w/v) paraformaldehyde and 2.5% (v/v) glutaraldehyde in 10 mM HEPES buffer (pH 7.0). Subsequently, the cells were incubated for 2 h at room temperature on a roller and stored at 4°C. Afterward, the fixed cells were pre‐embedded with agar, subjected to four washes with 5 mM HEPES buffer (pH 7.0) (5 min per wash), and post‐fixed with 1% osmium tetroxide (OsO4) for 30 min. Following post‐fixation, the specimens were rinsed twice with water and dehydrated using an acetone series (5 min each; 30%, 50%, 70%, 85%, 90%, 3×5 min 100%). […]

HCT116 = test: MTT primary screening of anticancer activity, HCT116; assay type: cell-based, Human; details: 25 µM pACP, 24 h, maintenance medium 1% FBS, ratio of viability to vehicle (PBS), at least three technical repetitions
How it was run: as §1

CT26 cells [2] = test: Propidium iodide (PI) assay of CT26 membrane damage; assay type: cell-based, Murine; details: pACP1780 6.23 µM, pACP2283 10.56 µM, 1, 2, 6, 12 h, PI 10 µg ml-1 45 min, ex/em 535/617 nm
Protocol: as §2
Cell viability was assessed using propidium iodide (PI, ZS822‐1) according to the manufacturer's instructions. Briefly, CT26 cells were seeded in a 96‐well plate at a density of 1×10^4 cells per well. After 24 h, pACP1780 and pACP2283 were added to the wells at concentrations of 6.23 and 10.56 µM, respectively. The plate was then incubated for 1, 2, 6, and 12 h. Subsequently, the cells were cultured in medium containing 10 µg ml^−1 PI for 45 min. The fluorescence intensity was measured using a CytationTM 5 instrument (Bio Tek) with excitation/emission wavelengths of 535/617 nm.

HEK293 cells = test: Toxicity to HEK293 cells (MTT); assay type: cell-based; details: 1.5-100 µM pACP, 24 h, maintenance medium 1% FBS
Protocol: Furthermore, we investigated the safety of pACP2283 and pACP1780 both in vivo and in vitro. […] Additionally, we conducted an acute toxicity experiment in tumor‐free mice by administering pACPs with increasing concentrations into the abdomen. […] This temporary decrease in body weight growth rate may be attributed to the high concentrations of pACPs, which temporarily disturbed the mice's homeostasis.
To assess the toxicity of pACP1780 and pACP2283 at the cellular level, HEK293 cells were grown to 60% confluence in complete medium (10% FBS) for 24 h, and then treated with increasing concentrations (1.5, 3, 6, 12.5, 25, 50, and 100 µM) of each pACPs in maintenance medium (1% FBS) for 24 h. The viability of HEK293 cells was determined using the MTT Cell Proliferation and Cytotoxicity Assay Kit following the manufacturer's instructions. For acute toxicity in tumor‐free mice, the pACPs were injected into the abdomen at increasing concentrations of 2, 10, and 50 mg kg^−1 of mouse weight over three days, and the body weights were recorded throughout the process.

BT474 = test: MTT primary screening of anticancer activity, BT474; assay type: cell-based; details: 25 µM pACP, 24 h, maintenance medium 1% FBS, ratio of viability to vehicle (PBS), at least three technical repetitions
How it was run: as §1

MDA-MB-436 = test: MTT primary screening of anticancer activity, MDA-MB-436; assay type: cell-based; details: 25 µM pACP, 24 h, maintenance medium 1% FBS, ratio of viability to vehicle (PBS), at least three technical repetitions
How it was run: as §1

MDA-MB-453 = test: MTT primary screening of anticancer activity, MDA-MB-453; assay type: cell-based; details: 25 µM pACP, 24 h, maintenance medium 1% FBS, ratio of viability to vehicle (PBS), at least three technical repetitions
How it was run: as §1

| Sequence | CC50 (CT26) [µM] | Survival rate of cancer cells in primary screening (LCC) | cell membranes by transmission electron microscopy (CT26 cells [1]) | Survival rate of cancer cells in primary screening (HCT116) | PI fluorescence intensity (damaged cell membranes) (CT26 cells [2]) | toxicity to HEK293 cells (HEK293 cells) | Survival rate of cancer cells in primary screening (BT474) | Survival rate of cancer cells in primary screening (MDA-MB-436) | Survival rate of cancer cells in primary screening (MDA-MB-453) |
| --- | --- | --- | --- | --- | --- | --- | --- | --- | --- |
| RRFAWIGKLQSRKVRNNIRQYRTKIVRQMRRQIFRQMKQKAE [pACP1780] | 6.23 | 0.47 | disintegrated cell membranes | 0.29 | significantly increased fluorescence intensity | no toxicity to HEK293 cells | 0.03 | 0.00535 | 0.085 |
| WWRRAERSVRRFFGTPIGPFPEIFGRRKAHKKKIIAKFDSVNG [pACP2283] | 10.56 | 0.49 | disintegrated cell membranes | 0.0645 | significantly increased fluorescence intensity | no toxicity to HEK293 cells | 0.02 | 0.00645 | 0.03 |
